In series [1] the test system is SMN2 minigene (full length SMN2 minigene mRNA containing SMN2 exon 7). As to the kind of experiment: SMN2 minigene mRNA splicing RT-qPCR assay in cultured cells. The series is classed as cell-based, human. The conditions noted are these: Homo sapiens, HEK293-H, read-out: EC1.5x for production of full length SMN2 mRNA. Put shortly: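 Full-length SMN2 minigene mRNA (exon 7 included), minigene-specific and not endogenous SMN, quantified by RT-qPCR multiplexed with GAPDH in stably transfected HEK293H cells after 24 h compound exposure at 37° C. Abundance from efficiency-corrected Ct, normalized to GAPDH and vehicle; EC1.5x reported as star bins.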

Series [2] concerns Smn protein. As to the kind of experiment: Smn protein assay in cultured cells (SMN HTRF). The series is classed as cell-based, human. The conditions noted are these: 48 hours; for maximum fold (Fold) increase of Smn protein: SMA patient fibroblast cells, 7-point concentration data, fold increase relative to vehicle control (SMN HTRF); for EC1.5x (concentration giving 1.5-fold Smn protein increase): SMA Type 1 patient fibroblast cells (GM03813), 7-point concentration curve, SMN HTRF, concentration producing 1.5 times Smn protein vs DMSO vehicle control, read-out: EC1.5x for Smn protein expression. Put shortly: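 Smn in SMA fibroblast lysates, measured by anti-SMN HTRF after 48 h compound exposure; EC1.5x from fold change over vehicle.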

Setting [3] is: HEK293H cells stably transfected with SMN2-A minigene, 24 hours, 7-point concentration curve, 1.5-fold relative to vehicle-treated cells.

Molecules are shown by their SMILES. Like-named read-outs stand apart in the source and are kept apart here.

As usually defined, the melting point is the temperature, or range, at which the solid turns liquid. For the molecule `O=c1oc2cc(N3CCCNCC3)cc(F)c2cc1-c1nc2c(F)cccc2o1` [Compound 368, 7-(1,4-diazepan-1-yl)-5-fluoro-3-(4-fluoro-1,3-benzoxazol-2-yl)-2H-chromen-2-one], the melting point fell in the range of 240 to 245 °C. Also, in series [1] (setting [3]), the EC (1.5-fold) is 0.3 to 1 µM. The “maximum fold (Fold) increase of Smn protein” value (from here on “maximum fold (Fold) increase”) in series [2] is “** (fold increase between >1.2 and ≤1.35)”.

Molecule `O=c1oc2cc(N3CCNCC3)ccc2cc1-c1nc2ccccc2[nH]1` [Compound 313, 3-(1H-benzimidazol-2-yl)-7-(piperazin-1-yl)-2H-chromen-2-one] had a melting point of 254 to 258 °C. In addition, the EC (1.5-fold) in series [1] (setting [3]) was in the range of 0.3 to 1 µM. In series [2], the “maximum fold (Fold) increase” value was “* (maximum fold increase of ≤1.2)”.

With `Cc1nc(Cl)cn2cc(-c3cc4ccc(N5CCCN(C)CC5)cc4oc3=O)nc12` [Cpd 712, 3-(6-chloro-8-methylimidazo[1,2-a]pyrazin-2-yl)-7-(4-methyl-1,4-diazepan-1-yl)-2H-chromen-2-one], the melting point was in the range of 212 to 218 °C. In addition, the EC (1.5-fold) in series [1] (setting [3]) was under 0.1 µM. In addition, in series [2], the “maximum fold (Fold) increase” value was “** (fold increase between >1.2 and ≤1.35)”.

Turning to `Cc1cn2cc(-c3cc4ccc(N5C[C@@H]6CCN(C)[C@@H]6C5)cc4oc3=O)cc2c(C)n1` [Compound 729, 3-(1,3-dimethylpyrrolo[1,2-a]pyrazin-7-yl)-7-[(3aS,6aS)-1-methylhexahydropyrrolo[3,4-b]pyrrol-5(1H)-yl]-2H-chromen-2-one], the melting point lay within 173 to 175 °C. Besides, the EC (1.5-fold) in series [1] (setting [3]) is under 0.1 µM. Further, in series [2], the EC1.5x (concentration giving 1.5-fold Smn protein increase) lay in the range of 1000 to 3000 nM; the “maximum fold (Fold) increase” value was “*** (fold increase between >1.35 and ≤1.5)”.

For `CCN1CCN(c2ccc3cc(-c4cn5cc(C)ncc5n4)c(=O)oc3c2)CC1` [Compound 622, 7-(4-ethylpiperazin-1-yl)-3-(6-methylimidazo[1,2-a]pyrazin-2-yl)-2H-chromen-2-one], the melting point lay in the range of 242 to 255 °C. In addition, the EC (1.5-fold) in series [1] (setting [3]) was under 0.1 µM. Also, in series [2], the EC1.5x (concentration giving 1.5-fold Smn protein increase) was under 300 nM; the “maximum fold (Fold) increase” value is “**** (fold increase between >1.5 and ≤1.65)”.

Consider `CN1CCN(c2ccc3cc(-c4cc5ccccn5n4)c(=O)oc3c2)CC1` [Compound 188, 7-(4-methylpiperazin-1-yl)-3-(pyrazolo[1,5-a]pyridin-2-yl)-2H-chromen-2-one], for which the melting point was in the range of 235 to 237 °C. Further, the EC (1.5-fold) in series [1] (setting [3]) lay in the range of 0.3 to 1 µM. In series [2], the EC1.5x (concentration giving 1.5-fold Smn protein increase) was in the range of 3000 to 10000 nM; the “maximum fold (Fold) increase” value is “*** (fold increase between >1.35 and ≤1.5)”.

`O=c1oc2cc(N3CCNCC3)ccc2cc1-c1cc2ccccn2c1` [Cpd 529, 3-(indolizin-2-yl)-7-(piperazin-1-yl)-2H-chromen-2-one] had a melting point of 186 to 188 °C. In addition, the EC (1.5-fold) in series [1] (setting [3]) is 1 to 3 µM. Also, the “maximum fold (Fold) increase” value in series [2] was “* (maximum fold increase of ≤1.2)”.

The molecule `Cc1cn2cc(-c3cc4ccc(N5CCN[C@H](C)C5)cc4oc3=O)cc2c(C)n1` [Compound 668, 3-(1,3-dimethylpyrrolo[1,2-a]pyrazin-7-yl)-7-[(3R)-3-methylpiperazin-1-yl]-2H-chromen-2-one] registered a melting point of 205 to 209 °C. In series [1] (setting [3]), the EC (1.5-fold) was under 0.1 µM. Moreover, in series [2], the EC1.5x (concentration giving 1.5-fold Smn protein increase) is under 300 nM and the “maximum fold (Fold) increase” value is on record as “***** (fold increase >1.65)”.

Consider `C[C@H]1CN(c2cc(F)c3cc(-c4cn5cccc(Cl)c5n4)c(=O)oc3c2)CCN1` [Compound 393, 3-(8-chloroimidazo[1,2-a]pyridin-2-yl)-5-fluoro-7-[(3S)-3-methylpiperazin-1-yl]-2H-chromen-2-one], for which the melting point is 268 to 278 °C. Further, the EC (1.5-fold) in series [1] (setting [3]) was in the range of 0.3 to 1 µM. Moreover, the “maximum fold (Fold) increase” value in series [2] is “*** (fold increase between >1.35 and ≤1.5)”.

Regarding `Cc1ccn2cc(-c3cc4ccc(N(C)CCN(C)C)cc4oc3=O)nc2n1` [Compound 226, 7-{[2-(dimethylamino)ethyl](methyl)amino}-3-(7-methylimidazo[1,2-a]pyrimidin-2-yl)-2H-chromen-2-one], the melting point lay in the range of 188 to 191 °C. Moreover, in series [1] (setting [3]), the EC (1.5-fold) was in the range of 3 to 30 µM. Also, in series [2], the “maximum fold (Fold) increase” value was “* (maximum fold increase of ≤1.2)”.

`Cc1cn2cc(-c3cc4ccc(N[C@@H]5CCNC5)cc4oc3=O)nc2c(C)n1` [Compound 564, 3-(6,8-dimethylimidazo[1,2-a]pyrazin-2-yl)-7-[(3R)-pyrrolidin-3-ylamino]-2H-chromen-2-one]: the melting point was in the range of 290 to 300 °C. Moreover, the EC (1.5-fold) in series [1] (setting [3]) was under 0.1 µM. Moreover, in series [2], the EC1.5x (concentration giving 1.5-fold Smn protein increase) is under 300 nM and the “maximum fold (Fold) increase” value is given as “***** (fold increase >1.65)”.

The molecule `COc1c(F)cc(F)cc1-c1cc2ccc(N3C[C@@H](C)N[C@@H](C)C3)cc2oc1=O` [Compound 540, 3-(3,5-difluoro-2-methoxyphenyl)-7-[(3R,5S)-3,5-dimethylpiperazin-1-yl]-2H-chromen-2-one] yielded a melting point of 109 to 111 °C. Also, in series [1] (setting [3]), the EC (1.5-fold) was in the range of 3 to 30 µM. Besides, the “maximum fold (Fold) increase” value in series [2] is recorded as “* (maximum fold increase of ≤1.2)”.

On to `CN1CCN(c2ccc3cc(-c4cn5ncccc5n4)c(=O)oc3c2)CC1` [Cpd 128, 3-(imidazo[1,2-b]pyridazin-2-yl)-7-(4-methylpiperazin-1-yl)-2H-chromen-2-one], for which the melting point lay in the range of 284 to 285 °C. Further, the EC (1.5-fold) in series [1] (setting [3]) lay within 1 to 3 µM. Moreover, in series [2], the EC1.5x (concentration giving 1.5-fold Smn protein increase) lay in the range of 3000 to 10000 nM; the “maximum fold (Fold) increase” value is “*** (fold increase between >1.35 and ≤1.5)”.

Regarding `O=c1oc2cc(O[C@H]3CCNC3)ccc2cc1-c1nc2ccccc2s1` [Compound 54, 3-(1,3-benzothiazol-2-yl)-7-[(3S)-pyrrolidin-3-yloxy]-2H-chromen-2-one], the melting point fell in the range of 205 to 211 °C. Further, the EC (1.5-fold) in series [1] (setting [3]) lay within 1 to 3 µM. For the same molecule, the “maximum fold (Fold) increase” value in series [2] is reported as “* (maximum fold increase of ≤1.2)”.

Consider `Cc1ccn2cc(-c3cc4c(F)cc(N5CCNCC5)cc4oc3=O)nc2c1` [Compound 424, 5-fluoro-3-(7-methylimidazo[1,2-a]pyridin-2-yl)-7-(piperazin-1-yl)-2H-chromen-2-one], for which the melting point was in the range of 268 to 278 °C. Further, the EC (1.5-fold) in series [1] (setting [3]) was 0.1 to 0.3 µM. Also, in series [2], the EC1.5x (concentration giving 1.5-fold Smn protein increase) is under 300 nM; the “maximum fold (Fold) increase” value was “*** (fold increase between >1.35 and ≤1.5)”.

Molecule `Cc1cn2cc(-c3cc4ccc(NC5C[C@H]6CCC[C@@H](C5)N6C)cc4oc3=O)cc2c(C)n1` (stereo partly drawn) [Compound 728, 3-(1,3-dimethylpyrrolo[1,2-a]pyrazin-7-yl)-7-{[(1R,5S)-9-methyl-9-azabicyclo[3.3.1]non-3-yl]amino}-2H-chromen-2-one] registered a melting point of 235 to 238 °C. In addition, the EC (1.5-fold) in series [1] (24 h) is 0.3 to 1 µM. For the same molecule, the “maximum fold (Fold) increase” value in series [2] was “* (maximum fold increase of ≤1.2)”.

Consider `Cc1ccc2nc(-c3cc4ccc(N5CCN(C(C)C)CC5)cc4oc3=O)cn2c1` [Compound 82, 3-(6-methylimidazo[1,2-a]pyridin-2-yl)-7-[4-(propan-2-yl)piperazin-1-yl]-2H-chromen-2-one], for which the melting point is 260 °C (dec.). The EC (1.5-fold) in series [1] (setting [3]) fell in the range of 1 to 3 µM. Further, the “maximum fold (Fold) increase” value in series [2] is “** (fold increase between >1.2 and ≤1.35)”.

In turn, `Cc1c(-c2nc3ccccc3s2)c(=O)oc2cc(N3CCNCC3)ccc12` [Compound 147, 3-(1,3-benzothiazol-2-yl)-4-methyl-7-(piperazin-1-yl)-2H-chromen-2-one] came in with a melting point of 234 to 236 °C. In addition, in series [1] (setting [3]), the EC (1.5-fold) fell in the range of 1 to 3 µM. Also, in series [2], the “maximum fold (Fold) increase” value is reported as “* (maximum fold increase of ≤1.2)”.

For `C[C@H]1CN(c2ccc3cc(-c4cn5cccc(F)c5n4)c(=O)oc3c2)CCN1` [Compound 525, 3-(8-fluoroimidazo[1,2-a]pyridin-2-yl)-7-[(3S)-3-methylpiperazin-1-yl]-2H-chromen-2-one], the melting point lay within 190 to 193 °C. In addition, the EC (1.5-fold) in series [1] (setting [3]) was 0.1 to 0.3 µM. Also, the “maximum fold (Fold) increase” value in series [2] is “*** (fold increase between >1.35 and ≤1.5)”.

`Cc1nccn2cc(-c3cc4ccc(N5CCCN(C)CC5)cc4oc3=O)nc12` [Compound 558, 7-(4-methyl-1,4-diazepan-1-yl)-3-(8-methylimidazo[1,2-a]pyrazin-2-yl)-2H-chromen-2-one] had a melting point of 180 to 182 °C. The EC (1.5-fold) in series [1] (setting [3]) was under 0.1 µM. In series [2], the EC1.5x (concentration giving 1.5-fold Smn protein increase) lay within 300 to 1000 nM; the “maximum fold (Fold) increase” value is “**** (fold increase between >1.5 and ≤1.65)”.

Molecule `Cc1cn2cc(-c3cc4ccc(N5CC[C@H](CN(C)C)C5)cc4oc3=O)nc2c(C)n1` [Compound 965, 7-{(3R)-3-[(dimethylamino)methyl]pyrrolidin-1-yl}-3-(6,8-dimethylimidazo[1,2-a]pyrazin-2-yl)-2H-chromen-2-one] yielded a melting point of 206 to 208 °C. For the same molecule, the EC (1.5-fold) in series [1] (setting [3]) was under 0.1 µM. Further, in series [2], the EC1.5x (concentration giving 1.5-fold Smn protein increase) is under 300 nM; the “maximum fold (Fold) increase” value is “*** (fold increase between >1.35 and ≤1.5)”.

For the origin of these results see USRE47689E1, “Compounds for treating spinal muscular atrophy” (PTC Therapeutics, Inc., priority 2011, dated 2019).
